Experimental data: patent US20220313650A1, “METHODS FOR TREATING NEURODEVELOPMENTAL DISORDERS” (The Broad Institute, Inc., priority 2019, published 2022)
“Also recorded” adds a separate entry of the source.

Legend:
[1] = system: thalamo-TRN synapses; assay: Optogenetically evoked EPSCs in patched TRN neurons, thalamo-TRN pathway; format: cell-based, mice; settings: thalamo-TRN synapses, before vs after bath perfusion
Procedure: (§1) For conducting slice electrophysiology analysis, whole-cell patch-clamp recordings were performed using horizontal slices for the rebound bursting assays and angled-coronal thalamocortical slices for the synaptic optogenetics experiments (Agmon et al., 1991). 21-35 day old male C57BL6 mice and Ptchd1 Y/− (knockout) mice were used. Animals were transcardially perfused under isoflurane anesthesia with an ice-cold cutting solution (194 mM Sucrose, 30 mM NaCl, 4.5 mM KCl, 1.2 mM NaH2PO4, 10 mM Glucose, 2 mM MgCl2, 0.2 mM CaCl2, and 26 mM NaHCO3). Mice were then decapitated and the brains were carefully dissected out. Both cerebellum and olfactory bulb were removed from the brain and were placed and glued onto the stage of a Leica Vibratome with the ventral surface down and the pial surface towards the blade. 250 micron thick slices containing the TRN were then collected and recovered in regular artificial cerebrospinal fluid (aCSF; 119 mM NaCl, 2.3 mM KCl, 1 mM NaH2PO4; 11 mM Glucose, 1.3 mM MgCl2, 2.5 mM CaCl2), 26 mM NaHCO3) heated to 32° C. for 10 minutes and then at room temperature for at least 1 hr. All buffers were continuously bubbled with 95% O2/5% C02. Slices were then transferred to a submersion recording chamber where they were perfused with aCSF at a rate of 2 ml/min at room temperature. Patch recording pipettes were pulled using a Flaming/Brown micropipette puller (Sutter Instruments) and Borosilicate glass (KG33, King Precision Glass). The DC resistances were ˜4-6 MΩ. Potassium methanesulfonate based internal solution (140 mM KMeSO3; 10 mM KCl; 10 mM HEPES; 0.1 mM EGTA; 4 mM Mg-ATP; 0.2 mM Na-GTP; 10 mM hosphocreatine) was used. Neurons were visualized using infrared differential interference contrast (IR-DIC) microscopy (Olympus, BX51W1) with an upright microscope digital camera. […]
(§2) After allowing 1-2 weeks for mcherry-dflox.hChR2.EF1.AAV1 expression, acute somatosensory thalamocortical or horizontal brain slices were freshly obtained for in vitro recording and optogenetic stimulation (250 um thick, thalamocortical slices containing TRN from angled-coronal sections; Agmon and Connors, 1991) for optogenetic analysis. In brief, patch clamp recordings in voltage clamp configuration were performed while the Cortico-TRN or Thalamic-TRN pathway was activated by applying a blue LED (400-450 nm) light pulses (Lumen 300-LED Fluorescence Excitation Illumination System). For synaptic stimulation, neurons were held at −70 mV while 0.1-1.5 ms flashes were delivered directly to the recorded cell soma delivered through the 40× water immersion objective. […]

[2] = system: Ptchd1 KO mice; assay: Open field test of locomotor activity, Ptchd1 KO mice; format: in vivo
Procedure: (§3) For performing the open field test, mice were allowed to habituate to the behavioral testing room for 1 hour before the experiment. The locomotor activity in mice was evaluated over a 90 minute period in an automated Omnitech Digiscan apparatus (AccuScan Instruments). Locomotor activity was assessed as total distance traveled (m). For drug treatment experiments, mice received an intraperitoneal injection 15 minutes before the assay and then where placed kindly in the left corner, head facing into the corner.
(§4) The effects of mGluR2/3 activation on the locomotor activity of WT mice and Ptchd1 mutant mice were evaluated. In brief, all mice were treated with mGluR2/3 agonist, LY379268, at three different dosages (1 mg/kg, 5 mg/kg and 10 mg/kg) for open-field testing.
(§5) Here, whether mGluR3 activation would rescue the hyperactivity phenotype of Ptchd1 KO mice was evaluated. Locomotor activity estimated as total distance travelled (in) was assessed over a 90 min period in an automated Omnitech Digiscan apparatus. For drug treatment experiments, mice were placed in the open-field arena for 30 minutes prior to Mavalon 63 (5 mg/kg and 10 mg/kg in saline; i.p.), or vehicle injections before being returned to the arena.

[3] = system: WT mice; assay: Open field test of locomotor activity, WT mice; format: in vivo
Procedure: as §3, §4, §5

[4] = system: cortico-TRN synapses; assay: Optogenetically evoked EPSCs in patched TRN neurons, cortico-TRN pathway; format: cell-based, mice; settings: cortico-TRN synapses, before vs after bath application
Procedure: (§6) For conducting slice electrophysiology analysis, whole-cell patch-clamp recordings were performed using horizontal slices for the rebound bursting assays and angled-coronal thalamocortical slices for the synaptic optogenetics experiments (Agmon et al., 1991). 21-35 day old male C57BL6 mice and Ptchd1 Y/− (knockout) mice were used. Animals were transcardially perfused under isoflurane anesthesia with an ice-cold cutting solution (194 mM Sucrose, 30 mM NaCl, 4.5 mM KCl, 1.2 mM NaH2PO4, 10 mM Glucose, 2 mM MgCl2, 0.2 mM CaCl2, and 26 mM NaHCO3). Mice were then decapitated and the brains were carefully dissected out. Both cerebellum and olfactory bulb were removed from the brain and were placed and glued onto the stage of a Leica Vibratome with the ventral surface down and the pial surface towards the blade. 250 micron thick slices containing the TRN were then collected and recovered in regular artificial cerebrospinal fluid (aCSF; 119 mM NaCl, 2.3 mM KCl, 1 mM NaH2PO4; 11 mM Glucose, 1.3 mM MgCl2, 2.5 mM CaCl2), 26 mM NaHCO3) heated to 32° C. for 10 minutes and then at room temperature for at least 1 hr. All buffers were continuously bubbled with 95% O2/5% C02. Slices were then transferred to a submersion recording chamber where they were perfused with aCSF at a rate of 2 ml/min at room temperature. Patch recording pipettes were pulled using a Flaming/Brown micropipette puller (Sutter Instruments) and Borosilicate glass (KG33, King Precision Glass). The DC resistances were ˜4-6 MΩ. Potassium methanesulfonate based internal solution (140 mM KMeSO3; 10 mM KCl; 10 mM HEPES; 0.1 mM EGTA; 4 mM Mg-ATP; 0.2 mM Na-GTP; 10 mM hosphocreatine) was used. Neurons were visualized using infrared differential interference contrast (IR-DIC) microscopy (Olympus, BX51W1) with an upright microscope digital camera.
To study the changes in the acute somatosensory thalamocortical or horizontal brain areas, 21-25 days old Nex-Cre or VgluT2-Cre mice were anesthetized with isoflurane while placed in a small animal stereotaxic apparatus (David Kopf Instruments, CA, USA) and were injected bilaterally with 280 nl of mcherry-dflox.hChR2.EF1.AAV1 using a Nanoject (Drummond Scientific, Broomall, Pa.) via glass pipettes with […] diameter tips in somatosensory cortex (S1) and ventrobasal thalamic complex (VB). Coordinates from the bregma for S1: AP −0.7, ML 2.4 and DV 1.2 and for VB: AP −1.6, ML 1.5 and DV 3.5. The pipette was held in the final position for 10 min after injection before withdrawal from the brain. The incision was closed with vetbond and after surgery mice were injected with analgesics (SR-Bupronex 1 mg/kg) every 72 hours or as needed. […]
as §2

[5] = system: WT TRN neurons; assay: Whole-cell patch-clamp rebound burst firing in acute brain slices, WT mice; format: cell-based
Procedure: as §6
The recordings were made with a microelectrode amplifier with bridge and voltage clamp modes of operation (Multiclamp 700B, Molecular Devices, San Jose, Calif., USA). Signals were low-pass filtered at 2 kHz and sampled at 10-20 kHz with a Digidata 1440A (Molecular Devices, San Jose, Calif., USA). Data were stored on a computer for subsequent off-line analysis. Cells with the series resistance (Rs, typically 8-12 MΩ) changed by >20% were excluded for data analysis. In addition, cells with Rs more than […] at any time during the recordings were discarded.

[6] = system: Ptchd1 KO mice; assay: EEG/EMG sleep recording, Ptchd1 KO mice; format: in vivo; settings: Ptchd1 KO mice, Mavalon 63 10 mg/kg ip, 12 h recordings; 10 mg/kg
Description: (§7) For EEG recording studies, 8- to 12-week-old male mice with C57Bl/6J background, Ptchd1Y/− (knockout) and Ptchd1Y/+ (wild type) were deeply anesthetized with a 1% to 1.5% isoflurane. A screw electroencephalography (EEG) electrode (catalog no. 8403; Pinnacle Technology, Inc.) was implanted into the skull above the primary somatosensory cortex, S1 (AP: −1.8 and ML: +3.0 mm) using a stereotaxic device (David Kopf Instruments). A reference electrode was screwed in the occipital region of the skull and stainless steel electromyography (EMG) electrodes were placed in the nuchal muscle. All the electrodes were connected to a head-mount (catalog no. 8201-SS; Pinnacle Technology) and secured by using dental cement. The mice were allowed to recover for at least 2 weeks. Spontaneous EEG/EMG signals were recorded for 12 hours with a differential amplifier (8200-K1-SL amplifier; Pinnacle Technology). All signals were digitized at a sampling frequency of 1,000 Hz, filtered (1-100 Hz bandpass for EEG; 10-1 kHz bandpass for EMG), and acquired using Sirenia Acquisition program (Pinnacle Technology). Data were analyzed offline using Matlab (R2016a; MathWorks). The spectral power was calculated in 0.5-Hz bins (fast Fourier transform with Hamming window) with artifact-free 4-hour EEG signals from each animal. The power for the spectral band was normalized in reference to the power of the entire EEG spectrum (1-100 Hz) in each animal and averaged across all the animals in the same treatment or drug condition.
(§8) EEG and EMG from the frontal and parietal cortex and from the nuchal muscular complex were simultaneously recorded.
(§9) Surface electroencephalography (EEG) and electromyography (EMG) from the frontal and parietal cortex and from the nuchal muscular complex were simultaneously recorded.

[7] = system: wild type mice; assay: EEG/EMG sleep recording, WT mice; format: in vivo; settings: Mavalon 63 10 mg/kg ip, 12 h recordings, 10 mg/kg
Description: as §7, with “All signals were digitized at a sampling frequency of 1,000 Hz, filtered (1-100 Hz bandpass for EEG; 10-1 kHz bandpass for EMG), and acquired using Sirenia Acquisition program (Pinnacle Technology).” left out, “The power for the spectral band was normalized in reference to the power of the entire EEG spectrum (1-100 Hz) in each animal and averaged across all the animals in the same treatment or drug condition.” left out
as §8, §9

[8] = system: Ptchd1 KO TRN neurons; assay: Whole-cell patch-clamp rebound burst firing in acute brain slices, Ptchd1 KO mice; format: cell-based; settings: Mavalon 63
Procedure: as §1, with “temperature.” for “temperature. Patch recording pipettes were pulled using a Flaming/Brown micropipette puller (Sutter Instruments) and Borosilicate glass (KG33, King Precision Glass). The DC resistances were ˜4-6 MΩ. Potassium methanesulfonate based internal solution (140 mM KMeSO3; 10 mM KCl; 10 mM HEPES; 0.1 mM EGTA; 4 mM Mg-ATP; 0.2 mM Na-GTP; 10 mM hosphocreatine) was used. Neurons were visualized using infrared differential interference contrast (IR-DIC) microscopy (Olympus, BX51W1) with an upright microscope digital camera.”

Structure (SMILES)	paired-pulse ratio (PPR) [1]	locomotor activity ([2]; AZD8529 10, 20, 50 mg/Kg i.p., 90 minutes)	locomotor activity ([3]; WT mice, AZD8529 three dosing levels i.p., 90 minutes)	paired-pulse ratio (PPR) [4]	rebound burst firing, occlusion experiment ([5]; LY379268 applied in the presence of (after pretreatment with) ML337)	number of rebound burst firings ([5]; TRN neurons, ML337 5 μM bath application alone)	paired-pulse ratio (PPR) ([1]; listed as mGluR3 PAM)	locomotor activity (total distance travelled) ([2]; Mavalon 63 5 mg/kg and 10 mg/kg i.p., 90 min)	locomotor activity (hyperactivity) ([2]; Mavalon 63 30 mg/kg i.p., p=0.06, Bonferroni's multiple comparisons test)	hyperactivity phenotype, summary over doses ([2]; Mavalon 63 5, 10, 30 mg/Kg i.p., dose-dependent manner)	number of rebound burst firings ([5]; WT TRN neurons, Mavalon 63 in bath, after somatic hyperpolarization pulse, holding potentials −80 mV to −50 mV)	locomotor activity (total distance travelled) ([3]; WT mice, Mavalon 63 5 mg/kg and 10 mg/kg i.p., 90 min)	spontaneous locomotion activity ([3]; wild type mice, Mavalon 63 30 mg/kg i.p.)	paired-pulse ratio (PPR) ([4]; listed as mGluR3 PAM)	length of NREM sleep bout [6]	length of NREM sleep bout [7]	repetitive rebound bursting [8]
Cc1cc(-c2nc(CN3CCNCC3)no2)cc2c1C(=O)N(Cc1ccc(OC(F)(F)F)cc1)C2 [AZD8529, 1H-Isoindol-1-one, 2,3-dihydro-7-methyl-5-[3-(1-piperazinylmethyl)-1,2,4-oxadiazol-5-yl]-2-[[4-(trifluoromethoxy)phenyl]methyl]-]	no significant changes in the size of PPR	reduced locomotor activity	reduced locomotor activity	significant increase in the paired-pulse ratio (PPR); also recorded: significantly increased													
COc1ccc(C#Cc2ccc(C(=O)N3CCC[C@@H](O)C3)c(F)c2)cc1 [ML337, (R)-(2-fluoro-4-((- 4-methoxy-phenyl)ethynyl)phenyl) (3-hydroxypiperidin-1-yl)methanone]					blocked LY379268-induced enhancement of rebound bursting	decrease in the repetitive rebound bursting; also recorded: reduces the repetitive burst firings; also recorded: number of rebound burst firing was reduced											
CN1C(=O)c2cccn2-c2cc(-c3ccc(F)cn3)ccc2C12CC2 [Mavalon 63, 5-Methyl-9-(5-fluoropyridin-2-yl)-spiro [benzo[f]pyrrolo[1,2-a][1,4]diazepine-6,1′-cyclopropan]-4(5H)-one]	no significant changes in the size of PPR			not significantly increased			no significant changes in the PPR	no significant effect on locomotor activity	trend of reducing the hyperactivity	able to normalize the hyperactivity phenotype	significant increase in repetitive rebound bursting; also recorded: increase in the number of rebound burst firings; also recorded: Significant changes were detected at a membrane holding potentials between −70 mV and −60 mV	no significant effect on locomotor activity	No effect on the spontaneous locomotion activity	No significant changes in PPR	specifically increased the Non-REM (NREM) sleep bout length; also recorded: increased the length of NREM sleep bout	no change was observed	significant increase in repetitive rebound bursting
